Measurements from patent US5607922A, “1,5-anhydrohexitol nucleoside analogues” (Stichting Rega VZW, priority 1992, dated 1997).
Values after ≈ are worked out from the molar mass of the structure shown. Read-outs that look alike come from different tables or passages of the source.

Columns and labels:
vaccinia virus (VV) = assay: microbe, parasite or virus in culture; type: cell-based; conditions: Orthopoxvirus vaccinia, E6SM
[1] = tested on: herpes simplex virus type 1 (HSV-1) (KOS); assay: microbe, parasite or virus in culture; type: cell-based; conditions: Human alphaherpesvirus 1, E6SM
[2] = tested on: herpes simplex virus 2 (HSV-2) (G); assay: microbe, parasite or virus in culture; type: cell-based; conditions: Human alphaherpesvirus 2, E6SM
herpes simplex (1 and 2) = assay: Anti-herpes simplex (1 and 2) activity, statement in words; type: cell-based, herpes simplex virus
in vitro = conditions: human, e6 sm cells, Minimum cytotoxic concentration
[3] = tested on: Vesicular stomatitis virus; assay: microbe, parasite or virus in culture; type: cell-based; conditions: E6SM, read-out: Minimum inhibitory concentration Vesicular stomatitis virus
herpes viruses = conditions: in words; literature; cited from earlier work
[4] = read-out: Minimum inhibiting concentration ED50 VV
[5] = Table I, E6 SM cells, required to reduce virus-induced cytopathogenesis by 50%, read-out: Minimum inhibiting concentration ED50 HSV-1 (KOS)
[6] = Table I, E6 SM cells, required to reduce virus-induced cytopathogenesis by 50%, read-out: Minimum inhibiting concentration ED50 HSV-2 (G)
[7] = read-out: Minimum inhibitory concentration Vaccinia virus
[8] = read-out: Minimum inhibitory concentration Herpes simplex virus-1 (KOS)
[9] = read-out: Minimum inhibitory concentration Herpes simplex virus-2 (G)
[10] = Table III, required to cause a microscopically detectable alteration of normal cell morphology

SMILES	EC50 (vaccinia virus (VV); [4]) [µg/mL]	EC50 [1, 5] [µg/mL]	EC50 [2, 6] [µg/mL]	anti-herpes simplex (1 and 2) activity (herpes simplex (1 and 2))	MCC (in vitro) [µg/mL]	EC50 (vaccinia virus (VV); [7]) [µg/mL]	EC50 [1, 8] [µg/mL]	EC50 [2, 9] [µg/mL]	MCC (in vitro; [10]) [µg/mL]	EC50 [3] [µg/mL]	anti-viral activity against herpes viruses (herpes viruses)
O=c1[nH]c(=O)n([C@@H]2CO[C@H](CO)[C@@H](O)C2)cc1I [Compound 18, 1,5-Anhydro-2,3-dideoxy-2-(5-iodouracil-1-yl)-D-arabino-hexitol]	150 (≈ 407 µM)	0.07 (≈ 0.19 µM)	0.07 (≈ 0.19 µM)	especially advantageous anti-herpes simplex (1 and 2) activity	> 400						
Nc1nccc2c1ncn2[C@@H]1C[C@H](CO)[C@@H](O)[C@H]1O (relative stereo) [C-c^3 Ado, carbocyl 3-deaza adenosine]	0.7 (≈ 2.65 µM)	> 400	40 (≈ 151 µM)		> 400	0.2 (≈ 0.757 µM)	> 200	> 200	≥ 200	0.2 (≈ 0.757 µM)	
Nc1ccn([C@@H]2CO[C@H](CO)[C@@H](O)C2)c(=O)n1 [Compound 20, 1,5-Anhydro-2-(cytosin-1-yl)-2,3-dideoxy-D-arabinohexitol]	0.7 (≈ 2.9 µM)	0.7 (≈ 2.9 µM)	0.04 (≈ 0.166 µM)		> 400						
Nc1ncnc2c1ncn2[C@@H]1CO[C@H](CO)[C@@H](O)C1 [Compound 10, 1,5-Anhydro-2-(adenin-9-yl) 2,3-dideoxy-D-arabinohexitol]	20 (≈ 75.4 µM)	7 (≈ 26.4 µM)	7 (≈ 26.4 µM)		> 400						
CCc1cn([C@@H]2CO[C@H](CO)[C@@H](O)C2)c(=O)[nH]c1=O [Compound 23, 1,5-Anhydro-2,3-dideoxy-2-(5-ethyluracil-1-yl)-D-arabinohexitol]				especially advantageous anti-herpes simplex (1 and 2) activity		> 200	< 0.04	0.2 (≈ 0.74 µM)	> 200	> 200	
Nc1ncnc2c1ncn2C[C@H](O)CO [(S)-DHPA, (S)-9-(2,3-dihydroxypropyl)-adenine]		70 (≈ 335 µM)	300 (≈ 1430 µM)		> 400	20 (≈ 95.6 µM)	> 200	> 200	≥ 200	20 (≈ 95.6 µM)	
O=c1[nH]c(=O)n([C@H]2C[C@H](O)[C@@H](CO)O2)cc1/C=C/Br [BVDU, E-5-(2-bromovinyl)-2'-deoxyuridine]	0.2 (≈ 0.6 µM)		10 (≈ 30 µM)		> 400	0.7 (≈ 2.1 µM)	0.004 (≈ 0.012 µM)	> 200	≥ 200	> 200	dependent on a virus-specific thymidine kinase
Cc1cn([C@@H]2CO[C@H](CO)[C@@H](O)C2)c(=O)[nH]c1=O [Compound 17, 1,5-Anhydro-2,3-dideoxy2-(thymin-1-yl)-D-arabinohexitol]	> 200	40 (≈ 156 µM)	150 (≈ 585 µM)		> 400						
O=c1[nH]c(=O)n([C@H]2C[C@H](O)[C@@H](CO)O2)cc1I [IDU, 5-iodo-2'-deoxyuridine]	0.2 (≈ 0.565 µM)	0.2 (≈ 0.565 µM)	0.2 (≈ 0.565 µM)		> 400						dependent on a virus-specific thymidine kinase
NC(=O)c1ncn(C2O[C@H](CO)[C@@H](O)[C@H]2O)n1 (stereo partly drawn) [Ribavirin, 1-ribofuranosyl-3-carbamoyl-1,2,4-triazol]		70 (≈ 287 µM)	70 (≈ 287 µM)		> 400	70 (≈ 287 µM)	200 (≈ 819 µM)	> 400	> 400	20 (≈ 81.9 µM)	
Nc1nc(O)c2ncn([C@@H]3CO[C@H](CO)[C@@H](O)C3)c2n1 [Compound 13, 1,5-Anhydro-2-(guanin-9-yl)-2,3-dideoxy-D-arabinohexitol]	2 (≈ 7.11 µM)	0.2 (≈ 0.711 µM)	0.1 (≈ 0.356 µM)		> 400						
